Source: US20220030868A1, “FUNGICIDAL HALOMETHYL KETONES AND HYDRATES” (FMC CORPORATION, priority 2018, published 2022)

Legend:
[1] = system: Puccinia recondita f. sp. tritici; assay: Test B: test suspension sprayed on wheat seedlings one day before inoculation with Puccinia recondita f. sp. tritici spores (wheat leaf rust), disease rating; assay type: in vivo; conditions: 100 = 100% disease control, 0 = no control; for Test B rating (disease control) / pest or weed control at 10 ppm: 10 ppm test suspension; for pest or weed control at 50 ppm: 50 ppm test suspension
How it was run: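 Wheat seedlings were sprayed to run-off with compound suspended in 50/50 acetone/water containing 250 ppm PEG400, then inoculated with P. recondita f. sp. tritici spores the next day. Plants were held 24 h in saturated air at 20 °C, then 6 days in a growth chamber at 20 °C. Disease control was rated 0–100% relative to controls, with some entries run at 50 or 10 ppm.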

[2] = system: Phakopsora pachyrhizi; assay: Test A: test suspension sprayed on soybean seedlings one day before inoculation with Phakopsora pachyrhizi spores (Asian soybean rust), visual disease rating; assay type: in vivo; conditions: 100 = 100% disease control, 0 = no control; for Test A rating (disease control) / pest or weed control at 10 ppm: 10 ppm test suspension; for pest or weed control at 50 ppm / pest or weed control at 10 ppm: Phakopsora pachyrhizi; for pest or weed control at 50 ppm: 50 ppm test suspension
How it was run: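 Soybean seedlings were sprayed to run-off with test suspension (acetone 3% of volume, acetone/water 50/50, 250 ppm PEG400) and inoculated with rust spores one day later. Incubation: 24 h saturated atmosphere at 22° C, then 8 days growth chamber at 22° C; scores 0–100 relative to untreated controls.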

| SMILES | Test B rating (disease control) [1] | Test A rating (disease control) [2] | other results |
| --- | --- | --- | --- |
| CCO/C(=C\Oc1ccc(Cn2cc(C(=O)NCC3CC3)cn2)cc1)C(F)(F)F [compound 117] | 0% | 23% |  |
| CCO/C(=C\Oc1ccc(Cn2cc(C(=O)NC(C)C)cn2)cc1)C(F)(F)F [compound 118] | 0% | 0% |  |
| CCOC(=O)c1cnn(Cc2ccc(O/C=C(\OCC)C(F)(F)F)cc2)n1 [compound 119] | 0% | 97% |  |
| CCOC(=O)c1cnnn1Cc1ccc(O/C=C(\OCC)C(F)(F)F)cc1 [compound 120] | 0% | 0% |  |
| CCOC(=O)c1cn(Cc2ccc(O/C=C(\OCC)C(F)(F)F)cc2)nn1 [compound 121] | 0% | 100% |  |
| CCCCOC(=O)c1cnn(Cc2ccc(OCC3(C(F)(F)F)OCCO3)cc2)c1 [compound 125] | 0% | 100% |  |
| CCO/C(=C\Oc1ccc(Cc2nc(C(=O)NCC(F)(F)F)cs2)cc1)C(F)(F)F [compound 129] | 0% | 100% |  |
| CCO/C(=C\Oc1ccc(Cc2nc(C(=O)NCC3CC3)cs2)cc1)C(F)(F)F [compound 130] | 0% | 100% |  |
| CCOC(=O)c1cnn(CCc2ccc(OCC3(C(F)(F)F)OCCO3)cc2)c1 [compound 133] | 0% | 79% |  |
| O=C(OCC(F)(F)F)c1cnn(Cc2ccc(OCC3(C(F)(F)F)OCCO3)cc2)c1 [compound 134] | 32% | 89% |  |
| CCO/C(=C\Oc1ccc(Cn2cc(C(=O)OC(C)C)cn2)cc1)C(F)(F)F [compound 139] | 0% | 100% |  |
| CCOC(=O)c1cnn(Cc2ccc(C/C=C(\OCC)C(F)(F)F)cc2)c1 [compound 140] | 23% | 98% |  |
| CCOC(=O)c1cnn(Cc2ccc(COCC3(C(F)(F)F)OCCO3)cc2)c1 [compound 141] | 0% | 0% |  |
| CCO/C(=C\Oc1ccc(-c2noc(C(F)(F)F)n2)cc1)C(F)(F)F [compound 143] | 0% | 0% |  |
| CCO/C(=C\Oc1ccc(C#N)cc1)C(F)(F)F [compound 144] | 0% | 78% |  |
| CCOC(=O)c1cnn(Cc2ccc(O/C=C(\OCCO)C(F)(F)F)cc2)c1 [compound 145] | 0% | 82% |  |
| CCOC(=O)c1cnn(Cc2cccc(OCC3(C(F)(F)F)OCCO3)c2)c1 [compound 146] |  |  | pest or weed control at 50 ppm [1]: 0%; pest or weed control at 50 ppm [2]: 60% |
| N#Cc1cccc(OCC2(C(F)(F)F)OCCO2)c1 [compound 147] |  |  | pest or weed control at 50 ppm [1]: 0%; pest or weed control at 50 ppm [2]: 77% |
| CCO/C(=C\Oc1ccc(C=O)cc1)C(F)(F)F [compound 148] | 0% | 0% |  |
| CCO/C(=C\Oc1ccc(CNS(=O)(=O)CC)cc1)C(F)(F)F [compound 149] | 0% | 0% |  |

| SMILES | Test B rating (disease control) [1] | Test A rating (disease control) [2] | other results |
| --- | --- | --- | --- |
| CCO/C(=C\Oc1ccc(CNC(=O)CC)cc1)C(F)(F)F [compound 150] | 0% | 33% |  |
| CCO/C(=C\Oc1ccc(Cn2cccn2)cc1)C(F)(F)F [compound 151] | 0% | 0% |  |
| CCO/C(=C\Oc1ccc(Cn2nc(C)cc2C)cc1)C(F)(F)F [compound 152] | 0% | 0% |  |
| CCOC(=O)c1cn(Cc2ccc(O/C=C(\OCC)C(F)(F)F)cc2)cn1 [compound 153] | 0% | 100% |  |
| CCO/C(=C\Oc1ccc(CC#N)cc1)C(F)(F)F [compound 154] | 0% | 0% |  |
| CCO/C(=C\Oc1ccc(CSC#N)cc1)C(F)(F)F [compound 155] | 0% | 0% |  |
| CCO/C(=C\Oc1ccc(Cn2ccnc2)cc1)C(F)(F)F [compound 156] | 0% | 0% |  |
| CCO/C(=C\Oc1ccc(Cn2ccc(C)n2)cc1)C(F)(F)F [compound 158] | 0% | 0% |  |
| CCOC(=O)c1ccc2c(cnn2Cc2ccc(OCC3(C(F)(F)F)OCCO3)cc2)c1 [compound 160] | 0% | 13% |  |
| O=C(OCCCCl)c1cnn(Cc2ccc(OCC3(C(F)(F)F)OCCO3)cc2)c1 [compound 161] | 0% | 100% |  |
| N#CCNC(=O)c1cnn(Cc2ccc(OCC3(C(F)(F)F)OCCO3)cc2)c1 [compound 164] | 0% | 31% |  |
| O=[N+]([O-])c1cccc(OCC2(C(F)(F)F)OCCO2)c1 [compound 165] |  |  | pest or weed control at 10 ppm [1]: 0%; pest or weed control at 10 ppm [2]: 0% |
| O=[N+]([O-])c1ccc(OCC2(C(F)(F)F)OCCO2)cc1 [compound 166] | 95% | 100% |  |
| CCOC(=O)c1cnn(Cc2ccc(CO/C=C(\OCC)C(F)(F)F)cc2)c1 [compound 167] | 0% | 38% |  |
| CCOC(=O)c1cnn(Cc2ccc(OCC3(C(F)(F)F)OCCO3)nc2)c1 [compound 168] |  |  | pest or weed control at 10 ppm [1]: 0%; pest or weed control at 10 ppm [2]: 0% |
| CC(=O)COC(=O)c1cnn(Cc2ccc(OCC3(C(F)(F)F)OCCO3)cc2)c1 [compound 169] | 0% | 100% |  |
| N#CCOC(=O)c1cnn(Cc2ccc(OCC3(C(F)(F)F)OCCO3)cc2)c1 [compound 172] | 0% | 100% |  |
| FC(F)(F)c1nc(-c2ccc(OCC3(C(F)(F)F)OCCO3)cc2)no1 [compound 173] | 0% | 0% |  |
| NCc1ccc(OCC2(C(F)(F)F)OCCO2)cc1 [compound 174] | 0% | 0% |  |
| CC(C)C(=O)NCc1ccc(OCC2(C(F)(F)F)OCCO2)cc1 [compound 175] | 0% | 0% |  |

| SMILES | Test B rating (disease control) [1] | Test A rating (disease control) [2] | other results |
| --- | --- | --- | --- |
| O=C(NCc1ccc(OCC2(C(F)(F)F)OCCO2)cc1)C1CC1 [compound 176] | 0% | 0% |  |
| OCc1ccc(OCC2(C(F)(F)F)OCCO2)cc1 [compound 178] | 0% | 0% |  |
| O=C(NCc1ccc(OCC2(C(F)(F)F)OCCO2)cc1)c1cccc(C(F)(F)F)c1 [compound 179] | 0% | 0% |  |
| CCO/C(=C\Oc1ccc(Cn2cc(Cl)cn2)cc1)C(F)(F)F [compound 180] | 0% | 0% |  |
| CCO/C(=C\Oc1ccc(Cn2ccc(C(F)(F)F)n2)cc1)C(F)(F)F [compound 181] | 0% | 0% |  |
| CCO/C(=C\Oc1ccc(Cn2cc(C(F)(F)F)cn2)cc1)C(F)(F)F [compound 182] | 0% | 0% |  |
| CCO/C(=C\Oc1ccc(Cn2cc(Br)cn2)cc1)C(F)(F)F [compound 183] | 0% | 0% |  |
| CCO/C(=C\Oc1ccc(CN2C(=O)c3ccccc3C2=O)cc1)C(F)(F)F [compound 184] | 0% | 0% |  |
| C=CCOC(=O)c1cnn(Cc2ccc(OCC3(C(F)(F)F)OCCO3)cc2)c1 [compound 188] | 0% | 100% |  |
| COC(=O)c1ccc(OCC2(C(F)(F)F)OCCO2)cc1 [compound 189] | 0% | 0% |  |
| FC(F)(F)C1(COc2ccc(-c3ccccc3)cc2)OCCO1 [compound 190] | 0% | 0% |  |
| FC(F)(F)C1(COc2ccc(Oc3ccccc3)cc2)OCCO1 [compound 191] | 0% | 0% |  |
| FC(F)(F)C1(COc2ccc(Cc3ccccc3)cc2)OCCO1 [compound 192] | 0% | 0% |  |
| CCO/C(=C\Oc1ccc(COC(N)=O)cc1)C(F)(F)F [compound 193] | 86% | 0% |  |
| CCO/C(=C\Oc1ccc(CO)cc1)C(F)(F)F [compound 195] | 0% | 0% |  |
| CCNC(=O)OCc1ccc(O/C=C(\OCC)C(F)(F)F)cc1 [compound 196] | 74% | 0% |  |
| O=C(NCC(F)(F)F)c1cnn(Cc2ccc(OCC3(C(F)(F)F)OCCO3)cc2)c1 [compound 197] | 0% | 0% |  |
| CN(C)C(=O)c1cnn(Cc2ccc(OCC3(C(F)(F)F)OCCO3)cc2)c1 [compound 198] | 0% | 0% |  |
